Ends that are not written are not given here.

From patent US20250051391A1, “PEPTIDE INHIBITORS AND METHODS FOR INHIBITING PROTEIN AGGREGATION IN NEURONS AND NEURODEGENERATIVE DISEASES” (THE GOVERNING COUNCIL OF THE UNIVERSITY OF TORONTO, priority 2021, published 2025) come the findings set out here.

One assay concerns the target T1, CHMP2B (Homo sapiens, UniProt Q9UQN3).
T1 construct: against CHMP2B 1-199 truncation and CHMP2B full length; His tag (implied by Ni-NTA purification; pET-DEST42 vector); made in house; host or cells: E. coli Overexpress C41
Kind of assay: a-syn competition fluorescence polarization assay (FITC-Pdpep1.3 and CHMP2B). It is filed as binding. Particulars: 50 nM FITC-Pdpep1.3, 1 μM CHMP2B, a-syn titrated. (In fluorescence polarisation assays a small probe gives low polarisation when free and higher when bound to something large.)

The subject of another assay is HEK293 cells. Kind of assay: Lysosome activity (lysosomal flux) assay in HEK293 cells. The assay is classed as cell-based, human. Particulars: HEK293 cells co-expressing A53T a-syn. How it is done:
The Lysosome Intracellular Activity Assay kit was purchased from Abcam and used per manufacturer's instructions (ab234622). Briefly, cell medium was replaced with fresh medium containing DMSO, Leupeptin, or Bafilomycin A1 and incubated for 1 h at 37° C. with 5% CO2. Self-quenched substrate was added into each condition and incubated for 1 h (HEK293 cells) or overnight (SNCA triplication fibroblasts) at 37° C. with 5% CO2. After incubation, cells were washed twice in ice-cold 1× assay buffer containing DMSO, Leupeptin, or Bafilomycin A1. For HEK293 cells, cells were re-suspended in PBS containing DMSO or Leupeptin and analyzed by FACS. For fibroblasts, cells were incubated in PBS containing DMSO or Bafilomycin A1 and imaged by confocal microscopy.

In the next assay the target is T2, CHMP2B-VPS4 interaction (Homo sapiens, UniProt Q9UQN3).
T2 construct: expressed in transfected cells; host or cells: HEK293T
T2 sequence (Q9UQN3 whole entry): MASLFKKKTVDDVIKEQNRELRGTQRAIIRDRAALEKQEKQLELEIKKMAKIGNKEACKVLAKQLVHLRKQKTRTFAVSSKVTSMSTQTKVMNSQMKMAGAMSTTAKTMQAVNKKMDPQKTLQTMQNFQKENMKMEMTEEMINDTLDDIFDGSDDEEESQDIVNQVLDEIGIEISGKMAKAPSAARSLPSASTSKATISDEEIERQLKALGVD
As to the kind of experiment: Co-immunoprecipitation: disruption of VPS4B-CHMP2B interaction. The assay is classed as cell-based. Particulars: Flag-VPS4B, HA-tagged CHMP proteins, GFP-tagged peptides. How it is done:
HEK293T cells were co-transfected with Flag-tagged target protein, HA-tagged source protein, and GFP-tagged peptide or GFP. Cells were lysed 48 h after transfections with radioimmune precipitation assay buffer (50 mM Tris-HCl pH7.4, 1% Nonidet P-40, 150 mM NaCl, 1 mM EDTA, 10 mM Na3VO4, 10 mM sodium pyrophosphate, 25 mM NaF, 1× protease inhibitor mixture (Sigma)) for 30 min at 4° C. and coimmunoprecipitated with Flag beads (Clontech). The resulting immunocomplexes were analyzed by immunoblot using the appropriate antibodies. Protein samples were separated using 4-20% Mini-PROTEAN Tris-glycine gels (Bio-Rad) transferred to PVDF membranes and blocked in 5% milk containing PBS-Tween-20 (0.1%) for 1 h. PVDF membranes were then incubated with specified primary antibodies followed by incubation with horseradish peroxidase-conjugated secondary antibodies (Santa Cruz Biotechnology) and detected using enhanced chemiluminescence (GE Healthcare).

Assay [1] deals with a-syn oligomers in HEK293 cells. As to the kind of experiment: Oligomers screen (split YFP-a-syn protein fragment complementation, FACS). It is filed as cell-based, human. The source says:
To detect a-syn oligomers, a protein fragment complementation assay (PCA) of a-syn oligomerization in HEK293 cells (14) was used. In this assay, human A53T a-syn was fused to either the C- or N-terminal half of yellow fluorescent protein (YFP). No fluorescence is detectable while a-syn exists in monomers but, when a-syn oligomerizes, the two halves of YFP come in close enough proximity to form a functional, spontaneously fluorescent protein. […] By using fluorescence activated cell sorting (FACS), cells expressing Flag-tagged peptides that directly or indirectly interfered with a-syn oligomer formation were isolated and then the peptides were identified from genomic DNA (FIG. 1A). The screens yielded 10 hits (Table 1). The hit with the most reads (i.e., the most abundant) was the same peptide in all screens: IPIQLKA (SEQ ID NO: 1) (PDpep1) (Table 2). […] Lead peptide targets CHMP2B, a member of ESCRT-III
PCR primers that included the Illumina adaptor sequences were used to amplify peptide coding sequences recovered from selection and cell sorting. Results were demultiplexed, and peptide counts were tallied. After demultiplexing, only reads with an average quality Phred score of >30 were selected, and frequencies were calculated. Finally, the reads were then normalized to the total number of peptides read for that sample population, and a scalar factor was applied. In parallel, ˜25 individual colonies were Sanger sequenced to compare to the NGS data.
Lentiviruses were made in a 15 cm dish format by transfecting packaging cells (293T) with a three-plasmid system as previously described. Viral transduction of HEK293T cells, tet-off split luciferase a-syn cells, tet-off parent cells, and SH-SY5Y cells were performed with a multiplicity of infection of 0.3 (MOI=0.3). Infected cells were selected in puromycin-containing medium to eliminate uninfected cells and three aliquots of cells were collected for sampling of the initial (TO) cell population. Cells were treated with MG132 at concentrations of 0 μM, 10 μM, 25 μM or 50 μM. For the cell viability screen, surviving cells were collected and gDNA was extracted for identification of peptide inhibitors of cell toxicity. For the inhibition of a-syn aggregation screen, split YFP-a-syn constructs were transfected following stable expression of the peptides. Cells were sorted based on their GFP fluorescence intensities with a FACSVantage SE cell sorter (BD Bioscience).
Cells were harvested by trypsin treatment and centrifuged at 500×g for 5 minutes. The pellet was resuspended in ice-cold PBS and centrifuged again. The pellet was then resuspended at a concentration of 4×10^6 cells/ml in the sorting buffer, which is PBS containing 100 Kunitz Dnase l/ml, 10 μg/ml propidium iodide (Sigma) and 2% FBS. The sorting solution was also supplemented with either 10 μM forskolin, 100 μM 5,6-Dichlorobenzimidazole riboside (DRB, Sigma), 10 μM forskolin (Sigma) and 100 μM DRB or DMSO, as a control. The cells were then sent through a 40 μm filter to remove large clumps and loaded into either a FACScan Flow Cytometer (BD Bioscience) for cell analysis or a FACSVantage SE cell sorter (BD Bioscience) for cell sorting. The cells with positive propidium iodide staining (i.e., dead cells) were first eliminated from the analysis or sorting pool. For cell sorting, the desired population, either the most or least bright EGFP-positive cells, according to the purpose of the experiments (see Results), was sorted into either 15 ml conical tubes or 96-well plates, which both contained complete DMEM culture media.
Genomic DNA (gDNA) from peptide expressing cells at different time-points was extracted using QIAamp DNA Blood Mini Kit. PCR amplifications of peptides from gDNA in parallel with the lentiviral plasmid library (naïve library) were performed using indexed Illumina PCR primers to incorporate both the Illumina adapter sequences and indexing sequences. […]

T1 sequence (Q9UQN3 whole entry, the tested form may be a part): as the sequence (Q9UQN3 whole entry) above

DEEIERQLKALG [PDpep1.3]: on CHMP2B, the “competition with a-syn for binding to CHMP2B” value is “competed for binding to CHMP2B”. Further, the lysosomal flux entry in the assay with HEK293 cells was “returned lysosomal flux to baseline”. Also, the “effect on CHMP2B-VPS4 interaction (co-immunoprecipitation)” value is “disrupted the interaction between VPS4B and CHMP2B” at CHMP2B-VPS4 interaction; “inhibits the CHMP2B-VPS4 interaction” at CHMP2B-VPS4 interaction (listed as Pdpep1.3).

Turning to “IPIQLKA [PDpep1, top hit of all screens; maps to CHMP2B residues 203-209]”, the “Reads Ratio” value in assay [1] was 1,218.98. Further, the “Reads GFP High” value in assay [1] (FACS fraction GFP High) came to 12. Besides, the “Reads GFP Inter” value in assay [1] (FACS fraction GFP Inter) was determined as 2853. Besides, the “Reads GFP Neg” value in assay [1] (FACS fraction GFP Neg) amounted to 15556.
